In patent US7875260B2, “Imaging agents for functional imaging of lymphatic structures” (Baylor College of Medicine, priority 2006, dated 2011):

Columns and labels:
[1] = molecular target: T1, LYVE-1 present on the lymph endothelium (swine hindlimb lymph vessel) (Sus scrofa, UniProt I3LTD0); experiment: Staining of lymph vessels with HA-NIR, compared with ICG; format: in vivo
T1 construct: LYVE-1 present on the lymph endothelium; from tissue; host or cells: live white Yorkshire swine, hindlimb lymph vessels (lymph endothelium)
T1 sequence (I3LTD0 25-326): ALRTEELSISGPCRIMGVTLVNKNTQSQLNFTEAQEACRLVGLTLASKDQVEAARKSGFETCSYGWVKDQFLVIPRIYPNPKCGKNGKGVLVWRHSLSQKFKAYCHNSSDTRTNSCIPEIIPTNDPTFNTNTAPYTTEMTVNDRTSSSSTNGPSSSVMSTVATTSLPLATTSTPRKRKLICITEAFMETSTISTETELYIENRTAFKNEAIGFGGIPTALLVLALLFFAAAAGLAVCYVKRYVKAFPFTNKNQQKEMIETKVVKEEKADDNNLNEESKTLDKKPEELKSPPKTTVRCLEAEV
Procedure: Four, two-month old, 60 lb white Yorkshire swine (K Bar Livestock, HC 69 Box 270 Sabinal, Tex.) were imaged using protocols which were approved by the Baylor College of Medicine Institutional Animal Care and Use Committee. The animals were anesthetized, intubated, and maintained with isoflurane. Animal body temperature was maintained at 100° F. using a warming blanket. At the end of the procedure, the animals were euthanized and lymph nodes resected with fluorescence guidance.
Continuous-wave optical imaging of the fluorescent NIR dyes was performed with a custom built intensified charged-coupled device (CCD). Reynolds J S, Troy T L, and Sevick-Muraca E M. Multipixel techniques for frequency-domain photon migration imaging. Biotechnol Prog 13: 669-680, 1997., incorporated herein by reference in its entirety for all purposes. Briefly, the device had three principal components: 1) a NIR-sensitive image intensifier (model FS9910C ITT Night Vision, Roanoke, Va.); 2) a 16-bit dynamic range, frame transfer CCD camera (Roper Scientific, Tucson, Ariz.); and 3) a 785-nm laser diode (Thorlabs) used to provide the excitation light for activating ICG and hyaluronan-NIR. The 785-nm laser diode beam was expanded by using a planoconvex lens and a holographic optical diffuser such that approximately 0.08 m^2 of the swine's body was illuminated. A 785-nm holographic notch band rejection filter (model HNPF-785.0-2.0, Kaiser Optical Systems, Ann Arbor, Mich.) and an 830-nm image quality bandpass filter (model 830.0-2.0, Andover, Salem, N.H.) were placed before the 28-mm Nikkor lens (Nikon) to selectively reject the excitation light and pass the emitted 830-nm wavelength. […]
Images were processed using MATLAB (The Mathworks, Natick, Mass.), ImageJ (National Institutes of Health, Bethesda, Md.), and V++ (Digital Optics, Auckland, New Zealand). […] To reveal the frequency of the pulsatile flow, which is a characteristic of pumping lymphatics, the mean fluorescence intensity from a fixed region of interest on a lymph channel was selected and plotted as a function of imaging time. […]

[2] = cited from earlier work

Molecule | normalized fluorescent intensity at fixed ROI as a function of time (FIG. 10C) ([1]; image acquisition 6 min, leg lymph vessel) | propulsion of packets ([1]; intradermal, 64 μM HA-NIR or 32 μM ICG, swine hindlimb vessel) | fluorescent intensity as a function of vessel length and time (FIGS. 11C, 11D) ([1]; swine lymph vessels) | fraction broken down in the liver ([2]; liver) | fraction degraded in lymph nodes ([2]; lymph nodes)
CC1(C)C(/C=C/C=C/C=C/C=C2\N(CCCCS(=O)(=O)O)c3ccc4ccccc4c3C2(C)C)=[N+](CCCCS(=O)(=O)[O-])c2ccc3ccccc3c21 [ICG, indocyanine green] | fluctuation and net reduction of intensity | observed | varies with time and length along the vessel | – | –
hyaluronic acid [HA] | – | – | – | 10% | 90%
